This is an account of results in ChEMBL document CHEMBL5131447, “Discovery of orexin 2 receptor selective and dual orexin receptor agonists based on the tetralin structure: Switching of receptor selectivity by chirality on the tetralin ring” (Bioorg Med Chem Lett, 2022).

The species entered for assay [1] is Homo sapiens. Put plainly: Selectivity index, ratio of EC50 for agonist activity at OX1R (unknown origin) to EC50 for agonist activity at OX2R (unknown origin).
For assay [2], the target named is T1, Orexin receptor type 2 (Homo sapiens, UniProt O43614).
T1 sequence (O43614 whole entry): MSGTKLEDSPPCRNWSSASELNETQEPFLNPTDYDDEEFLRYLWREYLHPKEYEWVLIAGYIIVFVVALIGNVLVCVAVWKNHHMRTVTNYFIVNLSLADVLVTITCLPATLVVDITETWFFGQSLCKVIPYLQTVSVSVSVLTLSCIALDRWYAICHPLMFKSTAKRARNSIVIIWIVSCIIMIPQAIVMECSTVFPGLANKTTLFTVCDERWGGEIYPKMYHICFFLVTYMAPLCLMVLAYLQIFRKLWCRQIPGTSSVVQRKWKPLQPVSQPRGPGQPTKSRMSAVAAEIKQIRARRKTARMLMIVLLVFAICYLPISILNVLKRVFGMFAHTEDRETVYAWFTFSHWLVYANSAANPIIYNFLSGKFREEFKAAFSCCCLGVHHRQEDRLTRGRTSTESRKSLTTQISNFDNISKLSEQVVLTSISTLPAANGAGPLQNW
Kind of assay: Agonist activity at OX2R (unknown origin). The assay is classed as functional.

In assay [3] the target is T2, Orexin/Hypocretin receptor type 1 (Homo sapiens, UniProt O43613).
T2 sequence (O43613 whole entry): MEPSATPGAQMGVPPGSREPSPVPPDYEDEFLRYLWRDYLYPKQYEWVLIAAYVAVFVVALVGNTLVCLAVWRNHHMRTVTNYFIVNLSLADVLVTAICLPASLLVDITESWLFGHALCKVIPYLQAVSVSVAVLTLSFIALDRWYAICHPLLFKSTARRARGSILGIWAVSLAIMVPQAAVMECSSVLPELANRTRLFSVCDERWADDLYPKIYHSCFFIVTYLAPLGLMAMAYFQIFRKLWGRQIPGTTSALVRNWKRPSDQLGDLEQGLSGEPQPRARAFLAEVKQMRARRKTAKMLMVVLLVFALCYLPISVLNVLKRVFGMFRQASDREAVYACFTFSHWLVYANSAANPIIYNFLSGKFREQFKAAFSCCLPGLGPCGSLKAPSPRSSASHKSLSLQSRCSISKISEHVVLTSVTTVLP
Put plainly: Agonist activity at OX1R (unknown origin). The class given is functional.

For assay [4], the target named is T3, Orexin/Hypocretin receptor type 1 (Homo sapiens) (UniProt O43613).
T3 sequence (whole entry): T2 sequence (O43613 whole entry)
Kind of assay: Agonist activity at OX1R (unknown origin) assessed as maximum efficacy at 10 uM relative to control. The class given is functional.

For assay [5], the target named is T4, Orexin receptor type 2 (Homo sapiens) (UniProt O43614).
T4 sequence (whole entry): T1 sequence (O43614 whole entry)
Put plainly: Agonist activity at OX2R (unknown origin) assessed as maximum efficacy at 10 uM relative to control. The class given is functional.

In the case of `CCCN(C(=O)Cc1cccc(OC)c1)C1CCCc2ccc(NS(=O)(=O)c3cc(-c4cccc(C(=O)N(C)C)c4)ccc3OC)cc21` (stereo not given), the Ratio EC50 in assay [1] stood at 89.6. In addition, the figures for the EC50 in assay [2] and in assay [3] were 43.7 nM and 3920 nM, respectively.
Take `COc1ccc(-c2cccc(C(=O)N(C)C)c2)cc1S(=O)(=O)Nc1ccc2c(c1)C(N(C)C(=O)Cc1ccccc1)CCC2` (stereo not given): in assay [1], the Ratio EC50 stood at 10.5. The EC50 came out at 10.7 nM in assay [2] and 112 nM in assay [3].
With `COc1ccc(-c2cccc(C(=O)N(C)C)c2)cc1S(=O)(=O)Nc1ccc2c(c1)C(N(C)C(=O)C1CCCCC1)CCC2` (stereo not given), the EC50 in assay [2] was 837 nM; in assay [3], more than 10000 nM. Besides, the Emax in assay [4] (filed as agonist) was 44.3%.
Consider `COc1ccc(-c2cccc(C(=O)N(C)C)c2)cc1S(=O)(=O)Nc1ccc2c(c1)C(N(C)C(=O)Cc1cccc(N(C)C)c1)CCC2` (stereo not given), for which the Ratio EC50 in assay [1] was found to be 15.9. In addition, the EC50 in assay [2] was determined as 5.59 nM; in assay [3], 89 nM.
Consider `COc1cccc(CC(=O)N(CC2CC2)C2CCCc3ccc(NS(=O)(=O)c4cc(-c5cccc(C(=O)N(C)C)c5)ccc4OC)cc32)c1` (stereo not given), for which the figures for the EC50 in assay [2] and in assay [3] were 78.1 nM and more than 10000 nM, respectively. For the same compound, the Emax in assay [4] worked out at 18.7%.
As to `COc1cccc(CC(=O)OC2CCCc3ccc(NS(=O)(=O)c4cc(-c5cccc(C(=O)N(C)C)c5)ccc4OC)cc32)c1` (stereo not given), the Ratio EC50 in assay [1] was 14. Moreover, the values for the EC50 in assay [2] and in assay [3] were 413 nM and 5780 nM, respectively.
For the compound `COc1ccccc1CC(=O)N(C)C1CCCc2ccc(NS(=O)(=O)c3cc(-c4cccc(C(=O)N(C)C)c4)ccc3OC)cc21` (stereo not given), the Ratio EC50 in assay [1] was 25.7. Besides, the figures for the EC50 in assay [2] and in assay [3] were 3.59 nM and 92.2 nM, respectively.
On the same counts, the results for `COc1cccc(CC(=O)N(C)C2CCCc3ccc(NS(=O)(=O)c4cc(-c5cccc(C(=O)N(C)C)c5)ccc4OC)cc32)c1` (racemic) are 20.3, 1.51 nM and 30.7 nM.
In assay [3], `COC(=O)N1CCC[C@H](NS(C)(=O)=O)[C@@H]1CO[C@H]1CC[C@@H](c2ccccc2)CC1` [DANAVOREXTON] registered an EC50 of more than 30000 nM.
In the case of `COc1cccc(CC(=O)N(C)[C@H]2CCCc3ccc(NS(=O)(=O)c4cc(-c5cccc(C(=O)N(C)C)c5)ccc4OC)cc32)c1`, the Ratio EC50 in assay [1] turned out to be 461. Also, the EC50 is 2.69 nM in assay [2] and 1240 nM in assay [3].
Take `COc1ccc(-c2cccc(C(=O)N(C)C)c2)cc1S(=O)(=O)Nc1ccc2c(c1)C(N(C)C(=O)Cc1cccc(O)c1)CCC2` (stereo not given): the Ratio EC50 in assay [1] is 12.5. The EC50 stood at 57 nM in assay [2] and 713 nM in assay [3].
On the same counts, the results for `COc1ccc(-c2cccc(C(=O)N(C)C)c2)cc1S(=O)(=O)Nc1ccc2c(c1)C(N(C)C(=O)Cc1cccnc1)CCC2` (stereo not given) are 7.83, 151 nM and 1180 nM.
As to `COc1cccc(CC(=O)N(C)c2cccc3c2CC(NS(=O)(=O)c2cc(-c4cccc(C(=O)N(C)C)c4)ccc2OC)CC3)c1` (stereo not given), the values for the EC50 in assay [2] and in assay [3] were more than 10000 nM and 5490 nM, respectively. Further, in assay [5], the maximum response (Emax) is 39.9%.
On to `COc1cccc(CC(=O)NC2CCCc3ccc(NS(=O)(=O)c4cc(-c5cccc(C(=O)N(C)C)c5)ccc4OC)cc32)c1` (stereo not given), for which the Ratio EC50 in assay [1] stood at 8.61. The EC50 is 26.6 nM in assay [2] and 229 nM in assay [3].
On to H-MTLIGAAHNGSAQLLRQLRGQLGPPGSR-NH2, for which the Ratio EC50 in assay [1] is 41.7.
With `COc1ccc(-c2cccc(C(=O)N(C)C)c2)cc1S(=O)(=O)Nc1ccc2c(c1)C(N(C)C(=O)c1ccccc1)CCC2` (stereo not given), the EC50 in assay [2] is 618 nM; in assay [3], more than 10000 nM. Moreover, in assay [4], the Emax came to 8.61%.
As for `COc1ccc(-c2cccc(C(=O)N(C)C)c2)cc1S(=O)(=O)Nc1ccc2c(c1)C(N(C)C(=O)Cc1cccc(F)c1)CCC2` (stereo not given), the Ratio EC50 in assay [1] stood at 13.3. Besides, the figures for the EC50 in assay [2] and in assay [3] were 6.5 nM and 86.3 nM, respectively.
In assay [3], `COc1ccc(-c2cccc(C(=O)N(C)C)c2)cc1S(=O)(=O)Nc1ccc2c(c1)C(N(C)C(=O)Nc1ccccc1)CCC2` (stereo not given) had an EC50 of 3250 nM.
Turning to `CCCCC(=O)N(C)C1CCCc2ccc(NS(=O)(=O)c3cc(-c4cccc(C(=O)N(C)C)c4)ccc3OC)cc21` (stereo not given), in assay [1], the Ratio EC50 was 2.18. The EC50 in assay [2] turned out to be 1920 nM; in assay [3], 4180 nM.
For the compound `CCOc1cccc(CC(=O)N(C)C2CCCc3ccc(NS(=O)(=O)c4cc(-c5cccc(C(=O)N(C)C)c5)ccc4OC)cc32)c1` (stereo not given), in assay [1], the Ratio EC50 is 25.8. Moreover, the EC50 was found to be 2.14 nM in assay [2] and 55.3 nM in assay [3].
On the same counts, the results for `COc1cccc(CC(=O)N(C)c2cccc3ccc(NS(=O)(=O)c4cc(-c5cccc(C(=O)N(C)C)c5)ccc4OC)cc23)c1` are 1.79, 224 nM and 402 nM.
Take `COc1ccc(CC(=O)N(C)C2CCCc3ccc(NS(=O)(=O)c4cc(-c5cccc(C(=O)N(C)C)c5)ccc4OC)cc32)cc1` (stereo not given): in assay [3], the EC50 was found to be 120 nM.
Regarding `COc1ccc(-c2cccc(C(=O)N(C)C)c2)cc1S(=O)(=O)Nc1ccc2c(c1)C(N(C)C(=O)CCc1ccccc1)CCC2` (stereo not given), the Ratio EC50 in assay [1] amounted to 2.95. Also, the EC50 in assay [2] came to 126 nM; in assay [3] it was 372 nM.
The matching figures for `COc1cccc(CC(=O)N(C)[C@@H]2CCCc3ccc(NS(=O)(=O)c4cc(-c5cccc(C(=O)N(C)C)c5)ccc4OC)cc32)c1`: 23.3, 0.579 nM and 13.5 nM.
`COc1ccc(CN(C)C2CCc3ccc(NS(=O)(=O)c4cc(-c5cccc(C(=O)N(C)C)c5)ccc4OC)cc32)cc1` (stereo not given): the Ratio EC50 in assay [1] turned out to be 87.8. Moreover, the EC50 in assay [2] is 3.27 nM; in assay [3], 287 nM.
The matching figures for `CCN(C(=O)Cc1cccc(OC)c1)C1CCCc2ccc(NS(=O)(=O)c3cc(-c4cccc(C(=O)N(C)C)c4)ccc3OC)cc21` (stereo not given): 18.4, 19.3 nM and 356 nM.
